Results on 1 molecule are retold here after ChEMBL document CHEMBL5154848, “Synthesis of heterocyclic ring-fused analogs of HMG499 as novel degraders of HMG-CoA reductase that lower cholesterol” (Eur J Med Chem, 2022).

The test system of assay [1] is CHO-K1. The experiment in a line: Downregulation of lovastatin-induced HMGCR expression in CHO-K1 cells incubated for 16 hrs by immunoblot analysis. The class given is functional, cell-based. To be noted: Cricetulus griseus, dose 1-10 µM, DDE = dose-dependent effect. On the technique in general: Immunoblotting shows a protein as a band on a membrane.
A short description of assay [2]: Downregulation of HMGCR expression in CHO-K1 cells assessed as fold change in HMGCR expression at 3 uM incubated for 16 hrs by immunoblot analysis (reference value: 1.0). The class given is functional, Cricetulus griseus.
The subject of assay [3] is LX-2. Briefly: Antiproliferative activity against human LX2 cells assessed as reduction of TGF-beta1 induced proliferation by CCK-8 assay. It is filed as functional, cell-based. Conditions: DDE = dose-dependent effect.
A short description of assay [4]: Downregulation of HMGCR expression in CHO-K1 cells assessed as fold change in HMGCR expression at 10 uM incubated for 16 hrs by immunoblot analysis (reference value: 1.0). It is filed as functional, Cricetulus griseus.
Assay [5] in a line: Downregulation of lovastatin-induced HMGCR expression in CHO-K1 cells assessed as fold change in HMGCR expression at 3 uM incubated for 16 hrs by immunoblot analysis (reference value: 15.2). It is filed as functional, Cricetulus griseus.
Assay [6] has as its system LX-2. The experiment in a line: Downregulation of TGF-beta-1-induced cholesterol levels in human LX2 cells starved in serum free medium for 2 hrs followed by stimulation with TGF-beta-1 for 6 hrs and measured 24 hrs after compound treatment by. The class given is functional, cell-based. Conditions: DDE = dose-dependent effect.
In assay [7] the test system is RAW264.7. Briefly: Downregulation of LPS-stimulated TNF-alpha mRNA levels in mouse RAW264.7 cells pretreated with LPS for 2 hrs followed by compound treatment for 24 hrs by SYBR green dye based qRT-PCR analysis. It is filed as functional, cell-based. To be noted: dose <= 2.0 µM, DDE = dose-dependent effect. In general terms: Real-time PCR tracks product formation cycle by cycle.

Assay [8] can be described thus: Downregulation of lovastatin-induced HMGCR expression in CHO-K1 cells assessed as fold change in HMGCR expression at 10 uM incubated for 16 hrs by immunoblot analysis (reference value: 15.2). It is filed as functional, Cricetulus griseus.
Assay [9] has as its target T1, 3-hydroxy-3-methylglutaryl-coenzyme A reductase (Cricetulus griseus, UniProt P00347).
T1 sequence (P00347 whole entry): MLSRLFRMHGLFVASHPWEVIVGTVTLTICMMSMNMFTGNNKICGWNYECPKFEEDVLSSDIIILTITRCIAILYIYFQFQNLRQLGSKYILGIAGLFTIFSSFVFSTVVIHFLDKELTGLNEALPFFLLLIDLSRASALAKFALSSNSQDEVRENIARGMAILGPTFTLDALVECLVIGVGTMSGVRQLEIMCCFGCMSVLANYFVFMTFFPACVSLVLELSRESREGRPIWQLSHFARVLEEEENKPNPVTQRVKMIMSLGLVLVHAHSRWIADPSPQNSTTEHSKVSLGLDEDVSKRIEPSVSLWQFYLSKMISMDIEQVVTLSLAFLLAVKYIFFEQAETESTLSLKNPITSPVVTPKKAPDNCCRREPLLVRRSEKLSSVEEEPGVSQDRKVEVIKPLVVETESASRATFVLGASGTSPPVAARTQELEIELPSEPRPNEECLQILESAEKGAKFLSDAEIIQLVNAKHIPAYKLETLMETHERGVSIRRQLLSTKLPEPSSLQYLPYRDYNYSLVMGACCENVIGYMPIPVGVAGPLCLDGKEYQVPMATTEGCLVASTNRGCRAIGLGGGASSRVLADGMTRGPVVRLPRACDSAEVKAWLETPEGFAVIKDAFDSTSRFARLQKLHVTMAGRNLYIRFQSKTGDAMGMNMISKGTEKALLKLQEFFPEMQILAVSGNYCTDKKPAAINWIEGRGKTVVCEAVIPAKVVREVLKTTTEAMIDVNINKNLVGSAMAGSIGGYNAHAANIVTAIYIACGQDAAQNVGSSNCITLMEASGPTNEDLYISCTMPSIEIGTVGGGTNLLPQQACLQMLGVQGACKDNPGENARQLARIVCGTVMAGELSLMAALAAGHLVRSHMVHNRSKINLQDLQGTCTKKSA
Briefly: Induction of degradation of endogenous HMGCR in CHO-7 cells assessed as decrease in protein level incubated for 16 hrs in sterol-depleted medium by immunoblot analysis. The class given is cell-based.

Assay [10] has as its system LX-2. The experiment in a line: Downregulation of TGF-beta-1-induced TIMP1 mRNA levels in serum starved human LX2 cells pretreated with TGF-beta-1 for 6 hrs followed by compound treatment for 24 hrs by SYBR green dye based qRT-PCR analysis. It is filed as functional, cell-based. Conditions: dose <= 2.0 µM, DDE = dose-dependent effect.

Regarding `CC(=O)n1ncc2c1C(C)(C)C1=CC[C@H]3[C@@H]4CC[C@H]([C@H](C)CCC(=O)N5CCOCC5)[C@@]4(C)CC[C@@H]3[C@@]1(C)C2`, the Activity result in [1], in [3], in assay [6], in [7] and in assay [10] was “Dde” in each case. Besides, the “fold change (FC)” value stood at 0.1 in assay [2], 0.1 in assay [4], 1 in [5] and 0.4 in assay [8]. Also, in assay [9], the EC50 was 130 nM.

For orientation: EC50 means the concentration that produces a half-maximal response.
